In paper PMC3588144 (Molecular cancer therapeutics, 2012):

Tests used:
NCI-N87 xenograft = test: HER2 overexpressing gastric NCI-N87 xenograft model; details: 25 mg/kg i.v.; not statistically significant
436 cancer cell lines = assay type: cell-based, human
MV4-11 cells (FLT3-ITD) = assay type: cell-based, human; details: 100 nmol/L for 3 hours
[1] = pharmacokinetics after a single oral dose; set-up: species or system mice; details: mouse, in vivo
[2] = tolerability / maximum-tolerated dose; assay type: in vivo, mice; details: for maximum observed body weight loss: 14 days, male Balb/C nude mice
[3] = system: pS6 and pAkt in COLO-205 tumor tissue; test: pharmacodynamic markers in COLO-205 tumors; assay type: in vivo, mice; details: 25 mg/kg, 1h after the last dose on day 17
[4] = system: pAkt(S473) and pS6(S240/244) in PC3 tumor tissue; details: mouse, in vivo

O=c1[nH]cc(F)c(=O)[nH]1 [5-FU, 5-fluorouracil]
tumor growth inhibition (NCI-N87 xenograft): 32%

CN(C)C/C=C/C(=O)Nc1cc2c(Nc3ccc(F)c(Cl)c3)ncnc2cc1O[C@H]1CCOC1 [BIBW2992]
sensitivity of ERBB2-amplified cells with coincident PIK3CA mutations (436 cancer cell lines): did not observe increased sensitivity

CO[C@H]1C[C@@H]2CC[C@@H](C)[C@@](O)(O2)C(=O)C(=O)N2CCCC[C@H]2C(=O)O[C@H]([C@H](C)C[C@@H]2CC[C@@H](OCCO)[C@H](OC)C2)CC(=O)[C@H](C)/C=C(\C)[C@@H](O)[C@@H](OC)C(=O)[C@H](C)C[C@H](C)/C=C/C=C/C=C/1C [Everolimus, everolimus, reference compound]
inhibition of phosphorylation of Akt (MV4-11 cells (FLT3-ITD)): not able to inhibit | tumor growth inhibition (TGI) (PC3 xenograft; 5 mg/kg p.o. daily, 28 days): 133%

Cc1nc2c(-c3cnc(N)nc3)nc(N3CCOCC3)nc2n1C(C)C [VS-5584, 5-(9-isopropyl-8-methyl-2-morpholin-4-yl-9H-purin-6-yl)-pyrimidin-2-ylamine]
Tmax [1]: 0.9 h | half-life [1]: 10 h | maximum observed body weight loss ([2]; 25 mg/kg once daily, data not shown): 3.1% | maximum observed body weight loss ([2]; 35 mg/kg once daily, data not shown): 13.9% | peripheral blood cell counts ([2]; 25 and 35 mg/kg, data not shown): remained within normal levels without significant changes | tolerability of a single dose ([2]; single dose up to 100 mg/kg): well tolerated | reduction of pAkt in tumor [3]: 85% | reduction of pS6 in tumor [3]: 95% | pAkt(S473) blocked [4]: ≥ 90% | pS6(S240/244) blocked [4]: ≥ 90% | weight loss (mean) (PC3 xenograft; 11 and 25 mg/kg, day 27): 4.7%
